In ChEMBL document CHEMBL5120881, “Silencing Tautomerization to Isolate Unstable Physalins from Physalis minima” (J Nat Prod, 2022):
pIC50: −log10 of the molar value.

Tests used:
RAW264.7 = assay: Antiinflammatory activity in mouse RAW264.7 assessed as inhibition of LPS-stimulated NO production pretreated with LPS followed by compund addition by Griess reagent based microplate reader assay; format: functional, cell-based; conditions: Mus musculus, RAW264.7
A549 = assay: Antiproliferative activity against human A549 cells assessed as reduction in cell viability incubated for 48 hrs by CCK8 assay; format: functional, cell-based; conditions: A549, 48 h
HepG2 = assay: Antiproliferative activity against human HepG2 cells assessed as reduction in cell viability incubated for 48 hrs by CCK8 assay; format: functional, cell-based; conditions: HepG2, 48 h
MCF7 = assay: Antiproliferative activity against human MCF7 cells assessed as reduction in cell viability incubated for 48 hrs by CCK8 assay; format: functional, cell-based; conditions: MCF7, 48 h
SGC-7901 = assay: Antiproliferative activity against human SGC-7901 cells assessed as reduction in cell viability incubated for 48 hrs by CCK8 assay; format: functional, cell-based; conditions: SGC-7901, 48 h
[1] = Cytotoxicity against mouse RAW264.7 cells assessed as reduction in cell viability incubated for 48 hrs by CCK8 assay; format: toxicity, cell-based
[2] = Cytotoxicity against human L02 cells assessed as reduction in cell viability incubated for 48 hrs by CCK8 assay; format: toxicity, cell-based

pIC50 (RAW264.7) | pIC50 (A549) | pIC50 (HepG2) | pIC50 (MCF7) | pIC50 (SGC-7901) | Structure (SMILES) | IC50 at 48 h [1] [µM] | IC50 at 48 h [2] [µM]
4.37 |  |  |  |  | CNC(=N)NCCC[C@H](N)C(=O)OC |  | 
5.19 | < 4.30 | < 4.30 | < 4.30 | < 4.30 | C[C@]12C(=O)C=CC=C1[C@H](O)C[C@@H]1[C@@H]2CC[C@]2(O)C(=O)O[C@@]3(C)[C@H]4C[C@@]5(C)[C@@H]6C(=O)[C@@]1(OC[C@@]5(O)C(=O)O4)O[C@@]632 | > 50 | > 50
5.51 | < 4.30 | < 4.30 | < 4.30 | < 4.30 | COC(=O)CCC(=O)O[C@]12CC=CC(=O)[C@]1(C)[C@H]1CC[C@]3(O)C(=O)O[C@@]4(C)[C@H]5C[C@]6(C)[C@@H](CO[C@]7(O[C@@]43[C@H]6C7=O)[C@@H]1C[C@H]2O)C(=O)O5 | > 50 | > 50
4.83 | < 4.30 | < 4.30 | < 4.30 | < 4.30 | C[C@@]12C[C@H]3OC(=O)[C@]1(O)CO[C@@]14O[C@@]5([C@H]2C1=O)[C@@]3(C)OC(=O)[C@@]5(O)CC[C@H]1[C@H]4C[C@H](O)[C@]2(O)CC=CC(=O)[C@]12C | > 50 | > 50
5.44 | < 4.30 | < 4.30 | < 4.30 | < 4.30 | C[C@@]12C[C@H]3OC(=O)[C@@H]1CO[C@@]14O[C@]56[C@H]2[C@]1(O)[C@H](C[C@]5(O)C(=O)O[C@@]36C)[C@H]1[C@H]4CC[C@]2(O)CC=CC(=O)[C@]12C | > 50 | > 50
5.54 | < 4.30 | < 4.30 | < 4.30 | < 4.30 | COC(=O)C(C)(O)[C@@]1(C)C[C@@H](O)[C@]2(C)OC(=O)[C@@]3(O)CC[C@H]4[C@@H](C[C@@H](O)[C@@]5(O)CC=CC(=O)[C@]45C)[C@]4(O)O[C@@]23[C@H]1C4=O (some centres undefined) | > 50 | > 50
4.36 | < 4.30 | < 4.30 | < 4.30 | < 4.30 | C[C@]12OC(=O)[C@@]3(O)CC[C@H]4[C@@H](C[C@@H](O)[C@]5(O)CC=CC(=O)[C@]45C)[C@@]45OC[C@H]6C(=O)O[C@@H]1C[C@@]6(CO)[C@H](C4=O)[C@]23O5 | > 50 | > 50
4.87 | < 4.30 | < 4.30 | < 4.30 | < 4.30 | C[C@@]12C[C@H]3OC(=O)[C@@H]1CO[C@@]14O[C@@]5([C@H]2C1=O)[C@@]3(C)OC(=O)[C@@]5(O)CC[C@H]1[C@H]4C[C@@H](O)[C@@]2(OC(=O)c3cccnc3)CC=CC(=O)[C@]12C | > 50 | > 50
4.49 | < 4.30 | < 4.30 | < 4.30 | < 4.30 | COC(=O)C[C@@H](O)C(=O)O[C@]12CC=CC(=O)[C@]1(C)[C@H]1CC[C@]3(O)C(=O)O[C@@]4(C)[C@H]5C[C@]6(C)[C@@H](CO[C@]7(O[C@@]43[C@H]6C7=O)[C@@H]1C[C@H]2O)C(=O)O5 | > 50 | > 50
5.05 | < 4.30 | < 4.30 | < 4.30 | < 4.30 | C[C@@]12C[C@H]3OC(=O)[C@@H]1CO[C@@]14O[C@]56[C@H]2[C@]1(O)[C@H](C[C@]5(O)C(=O)O[C@@]36C)[C@H]1[C@H]4CC(O)[C@]2(O)CC=CC(=O)[C@]12C (some centres undefined) | > 50 | > 50
